Calls of active or inactive are those of the source. The calls are words filed in the database; no cut-off is given here.
What was measured:
[1] = target: T1, Alpha-1D adrenergic receptor (Homo sapiens, UniProt P25100); assay: biochemical
T1 sequence (P25100 whole entry): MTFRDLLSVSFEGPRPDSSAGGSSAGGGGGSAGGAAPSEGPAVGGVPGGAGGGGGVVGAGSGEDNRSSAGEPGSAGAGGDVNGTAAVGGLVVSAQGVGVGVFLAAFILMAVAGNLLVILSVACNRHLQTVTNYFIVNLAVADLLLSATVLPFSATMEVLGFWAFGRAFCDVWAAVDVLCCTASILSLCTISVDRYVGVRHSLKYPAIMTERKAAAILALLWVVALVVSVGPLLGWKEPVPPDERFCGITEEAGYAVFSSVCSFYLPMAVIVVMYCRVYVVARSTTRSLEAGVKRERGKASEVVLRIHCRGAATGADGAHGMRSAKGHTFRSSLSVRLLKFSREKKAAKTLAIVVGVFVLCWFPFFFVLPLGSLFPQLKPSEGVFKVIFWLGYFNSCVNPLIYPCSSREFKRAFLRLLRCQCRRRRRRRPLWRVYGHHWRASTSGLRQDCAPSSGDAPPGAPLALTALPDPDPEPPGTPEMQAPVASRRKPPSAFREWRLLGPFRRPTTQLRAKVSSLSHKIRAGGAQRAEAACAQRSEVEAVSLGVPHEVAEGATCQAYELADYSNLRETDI
Description: Displacement of [3H] prazosin from human cloned adrenoceptor alpha 1D expressed in CHO cell membrane incubated for 30 mins by liquid scintillation counter

[2] = target: T2, Alpha-1D adrenergic receptor (Rattus norvegicus) (UniProt P23944); assay: Antagonist activity at alpha-1d adrenergic receptor in Wistar rat thoracic aorta assessed as inhibition of (-)-noradrenaline-induced contractions
T2 sequence (whole entry): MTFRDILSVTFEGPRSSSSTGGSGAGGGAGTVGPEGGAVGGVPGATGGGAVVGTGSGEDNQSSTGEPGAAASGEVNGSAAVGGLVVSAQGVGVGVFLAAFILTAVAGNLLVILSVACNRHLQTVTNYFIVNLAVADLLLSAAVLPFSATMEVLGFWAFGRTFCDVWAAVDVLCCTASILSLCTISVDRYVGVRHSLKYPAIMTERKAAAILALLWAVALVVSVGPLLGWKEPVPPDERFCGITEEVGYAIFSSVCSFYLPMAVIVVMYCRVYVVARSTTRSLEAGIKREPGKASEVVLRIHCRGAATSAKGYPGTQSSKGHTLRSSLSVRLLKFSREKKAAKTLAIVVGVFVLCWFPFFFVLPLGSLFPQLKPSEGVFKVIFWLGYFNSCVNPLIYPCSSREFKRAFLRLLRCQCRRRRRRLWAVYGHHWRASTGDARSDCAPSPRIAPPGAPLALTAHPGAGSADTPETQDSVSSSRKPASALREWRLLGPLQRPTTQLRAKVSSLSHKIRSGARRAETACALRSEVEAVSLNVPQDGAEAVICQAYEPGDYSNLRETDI

[3] = Ratio of drug level in brain to plasma in Sprague-Dawley rat at 10 mg/kg, po measured upto 480 mins by LC/MS-MS analysis; type: ADME, organism-based; conditions: read-out: BPR
SH-SY5Y [4] = assay: Neuroprotective activity against rotenone-induced cell death in human SH-SY5Y cells at 1 uM incubated for 24 hrs by MTT assay; type: functional
SH-SY5Y [5] = assay: Neuroprotective activity against H2O2-induced cell death in human SH-SY5Y cells at 0.1 uM incubated for 24 hrs by MTT assay; type: functional
Rattus norvegicus [6] = assay: Antidepressant activity in Sprague-Dawley rat assessed as decrease in time of immobilization at 10 and 20 mg/kg, po by forced swim test; type: functional, organism-based
[7] = Efflux ratio of apparent permeability from basolateral to apical side over apical to basolateral side in dog MDCK2-MDR1 cells incubated for 120 mins by UV-visible spctrophotometry; type: ADME, cell-based, Canis lupus familiaris; conditions: MDCK-MDR1
Mus musculus = assay: Antinociceptive activity in formalin-induced nociception pain Swiss […] mouse model assessed as perception of II phase of noxious stimulus at 10 mg/kg, ip co-administered with 3 mg/kg, ip 5-HT1AR antagonist WAY-100635 by formalin test; type: functional, organism-based
Rattus norvegicus [8] = assay: Anxiolytic activity at Sprague-Dawley rat assessed as increase in time spent in open arm at 10 mg/kg, po by EPM test relative to control; type: functional
SH-SY5Y [9] = assay: Neuroprotective activity against rotenone-induced cell death in human SH-SY5Y cells at 0.1 uM incubated for 24 hrs by MTT assay; type: functional
Homo sapiens = species: Homo sapiens; assay: Selectivity ratio of pKi for human cloned 5HT-1AR transfected in HeLa cells to pKi for human cloned adrenoceptor alpha 1D expressed in CHO cell membrane; type: cell-based
Rattus norvegicus [10] = assay: Anxiolytic activity in at Sprague-Dawley rat assessed as increase in time spent in central area of open field at 10 mg/kg, po by open field test; type: functional, organism-based
[11] = Tmax in Sprague-Dawley rat plasma at 10 mg/kg, po measured upto 480 mins by LC/MS-MS analysis; type: ADME, organism-based
[12] = AUC (0 to infinity) in Sprague-Dawley rat plasma at 10 mg/kg, po measured upto 480 mins by LC/MS-MS analysis; type: ADME, organism-based; design: dose 10 mg/kg, route oral, time infinity; conditions: in vivo, 8 h
Rattus norvegicus [13] = assay: Antidepressant activity in Sprague-Dawley rat assessed as time spent on climbing at 5 to 20 mg/kg, po by forced swim test; type: functional, organism-based
Rattus norvegicus [14] = assay: Anxiolytic activity at Sprague-Dawley rat assessed as increase in number of open arm entries at 10 to 20 mg/kg, po by EPM test; type: functional, organism-based
Rattus norvegicus [15] = assay: Effect on locomotory activity in Sprague-Dawley rat assessed as distance travelled at 10 mg/kg, po by open field test; type: functional, organism-based
Rattus norvegicus [16] = assay: Anxiolytic activity in at Sprague-Dawley rat assessed as increase in number of entries into central area of open field at 10 mg/kg, po by open field test; type: functional, organism-based
[17] = Cmax in Sprague-Dawley rat plasma at 10 mg/kg, po measured upto 480 mins by LC/MS-MS analysis; type: ADME, organism-based; design: dose 10 mg/kg, route oral
[18] = Tmax in Sprague-Dawley rat brain at 10 mg/kg, po measured upto 480 mins by LC/MS-MS analysis; type: ADME, organism-based
SH-SY5Y [19] = assay: Cytotoxicity against human SH-SY5Y cells assessed as reduction in cell viability incubated for 24 hrs by MTT assay; type: cell-based
[20] = Apparent permeability from basolateral to apical side in dog MDCK2-MDR1 cells incubated for 120 mins by UV-visible spectrophotometry; type: ADME, cell-based, Canis lupus familiaris; conditions: MDCK-MDR1
Rattus norvegicus [21] = assay: Antidepressant activity in Sprague-Dawley rat assessed as increase in time spent in swimming at 10 and 20 mg/kg, po by forced swim test; type: functional, organism-based
[22] = Ratio of compound t1/2 to 8-OH-DPAT t1/2 in Sprague-Dawley rat plasma at 10 mg/kg, po measured upto 480 mins by LC/MS-MS analysis; type: ADME, organism-based; conditions: in vivo, 8 h
[23] = AUC (0 to t) in Sprague-Dawley rat plasma at 10 mg/kg, po measured upto 480 mins by LC/MS-MS analysis; type: ADME, organism-based; conditions: in vivo, 8 h
[24] = AUC (0 to infinity) in Sprague-Dawley rat brain at 10 mg/kg, po measured upto 480 mins by LC/MS-MS analysis; type: ADME, organism-based; design: dose 10 mg/kg, time infinity, route oral; conditions: in vivo, 8 h
SH-SY5Y [25] = assay: Neuroprotective activity against oligomycin A-induced cell death in human SH-SY5Y cells at 1 uM incubated for 24 hrs by MTT assay; type: functional

OCC(CNCCOc1ccccc1)OC(c1ccccc1)c1ccccc1 (configuration not stated)
Ki [1]: 57.5 nM
pKb [2]: 7.07

COc1ccccc1OCCNCCC1COC(c2ccccc2)(c2ccccc2)O1 (configuration not stated)
Ki [1]: 5.75 nM
pKb [2]: 8.17

COc1ccccc1OCCNCC(CO)OC(c1ccccc1)c1ccccc1 (configuration not stated)
Ki [1]: 5.89 nM
pKb [2]: 7.46

c1ccc(OCCNCC2COC(c3ccccc3)(c3ccccc3)OC2)cc1
Ki [1]: 178 nM
pKb [2]: 6.76

COc1ccccc1OCCNCC[C@H]1CO[C@H](C(c2ccccc2)c2ccccc2)O1 (relative stereo)
Ki [1]: 15.8 nM
pKb [2]: 7.25

COc1ccccc1OCCNCCOC(c1ccccc1)c1ccccc1
Ki [1]: 10 nM
pKb [2]: 7.75

COc1ccccc1OCCNCC[C@@H]1CO[C@H](C(c2ccccc2)c2ccccc2)O1 (relative stereo)
Ki [1]: 16.6 nM
pKb [2]: 7.67

COc1ccccc1OCCNCC1COC(c2ccccc2)(c2ccccc2)OC1.O=C(O)C(=O)O
Kp at 8 h [3]: 420
Activity (SH-SY5Y [4]): 61%
Activity (SH-SY5Y [5]): 89%
inhibition (Rattus norvegicus [6]): Active
efflux ratio at 2 h [7]: 0.49
inhibition (Mus musculus): inactive
Activity (Rattus norvegicus [8]): 20%
Activity (SH-SY5Y [9]): 63%
Ratio pKi (Homo sapiens): 16
Activity (Rattus norvegicus [10]): Active
Tmax [11]: 30 min
Ki [1]: 25.1 nM
AUC [12]: 18.1 nmol·min/g
Activity (Rattus norvegicus [13]): inactive
Activity (Rattus norvegicus [14]): Active
Activity (Rattus norvegicus [15]): inactive
Activity (Rattus norvegicus [16]): Active
Cmax [17]: 95 nM
Tmax [18]: 60 min
IC50 (SH-SY5Y [19]): 31200 nM
Papp B→A at 2 h [20]: 12.6 ×10⁻⁶ cm/s
Activity (Rattus norvegicus [21]): Active
Ratio [22]: 3
pKb [2]: 7.06
AUCt [23]: 17.4 nmol·min/g
AUC [24]: 7173.4 nmol·min/g
Activity (SH-SY5Y [25]): 83%

c1ccc(OCCNCC2CCOC(c3ccccc3)(c3ccccc3)O2)cc1 (configuration not stated)
Ki [1]: 5.01 nM
pKb [2]: 7.55

COc1ccccc1OCCNCC1CCOC(c2ccccc2)(c2ccccc2)O1 (configuration not stated)
Ki [1]: 1.02 nM
pKb [2]: 8.68

c1ccc(OCCNCCOC(c2ccccc2)c2ccccc2)cc1
Ki [1]: 1.2 nM
pKb [2]: 7.73

Reference: ChEMBL document CHEMBL4350985, “1,3-Dioxane as a scaffold for potent and selective 5-HT1AR agonist with in-vivo anxiolytic, anti-depressant and anti-nociceptive activity” (Eur J Med Chem, 2019)
